Test results from ChEMBL document CHEMBL3046800, “Tricyclic cyanoguanidines: synthesis, site of action and insecticidal activity of a novel class of reversible acetylcholinesterase inhibitors” (2002).
Calls of active or inactive are those of the source. The rule behind the calls is not given here.

Columns and labels:
[1] = system: Peregrinus maidis; assay: Insecticidal activity against Peregrinus maidis (corn hopper) infested compound-pretreated corn seed measured 6 days post-infestation; assay type: functional
[2] = system: Nephotettix cincticeps; assay: Insecticidal activity against Nephotettix cincticeps (green rice leafhopper) infested in compound-pretreated rice seedling measured 6 days post-infestation; assay type: functional
[3] = system: Nilaparvata lugens; assay: Insecticidal activity against Nilaparvata lugens (brown planthopper) infested in compound-pretreated rice seedling measured 6 days post-infestation; assay type: functional
[4] = biological target: Acetylcholinesterase (Leptinotarsa decemlineata) (UniProt Q27677); assay: Reversible inhibition of Diabrotica undecimpunctata (Southern corn rootworm) acetylcholinesterase using acetylcholine iodine as substrate at 10 uM incubated for 30 min prior to substrate addition by size exclusion chromatrography method
Chain of Acetylcholinesterase (Leptinotarsa decemlineata) (Q27677 whole entry): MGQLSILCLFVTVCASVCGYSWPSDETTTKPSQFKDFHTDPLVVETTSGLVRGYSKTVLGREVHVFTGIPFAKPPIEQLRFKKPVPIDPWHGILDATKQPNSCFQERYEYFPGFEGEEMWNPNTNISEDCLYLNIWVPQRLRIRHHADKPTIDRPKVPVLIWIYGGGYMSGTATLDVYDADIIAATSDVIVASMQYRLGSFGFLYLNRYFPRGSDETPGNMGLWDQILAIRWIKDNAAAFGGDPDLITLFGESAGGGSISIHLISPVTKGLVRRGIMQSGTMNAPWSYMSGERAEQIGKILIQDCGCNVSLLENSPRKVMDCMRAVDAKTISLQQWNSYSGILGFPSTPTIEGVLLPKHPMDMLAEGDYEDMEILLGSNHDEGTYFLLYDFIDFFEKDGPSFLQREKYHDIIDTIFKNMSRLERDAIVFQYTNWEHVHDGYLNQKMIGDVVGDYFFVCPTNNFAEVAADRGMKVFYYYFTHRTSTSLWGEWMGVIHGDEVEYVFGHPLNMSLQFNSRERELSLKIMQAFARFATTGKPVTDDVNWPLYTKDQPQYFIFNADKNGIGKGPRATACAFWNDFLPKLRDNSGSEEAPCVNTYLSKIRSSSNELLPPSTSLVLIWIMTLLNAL

[5] = biological target: Ace-orthologous acetylcholinesterase (Nephotettix cincticeps) (UniProt Q9NJH6); assay: Reversible inhibition of Nephotettix cincticeps (green rice leafhopper) acetylcholinesterase using acetylcholine iodine as substrate at 2 uM measured up to 120 min by DTNB-based colorimetric analysis
Chain of Ace-orthologous acetylcholinesterase (Nephotettix cincticeps) (Q9NJH6 20-677 limits assumed): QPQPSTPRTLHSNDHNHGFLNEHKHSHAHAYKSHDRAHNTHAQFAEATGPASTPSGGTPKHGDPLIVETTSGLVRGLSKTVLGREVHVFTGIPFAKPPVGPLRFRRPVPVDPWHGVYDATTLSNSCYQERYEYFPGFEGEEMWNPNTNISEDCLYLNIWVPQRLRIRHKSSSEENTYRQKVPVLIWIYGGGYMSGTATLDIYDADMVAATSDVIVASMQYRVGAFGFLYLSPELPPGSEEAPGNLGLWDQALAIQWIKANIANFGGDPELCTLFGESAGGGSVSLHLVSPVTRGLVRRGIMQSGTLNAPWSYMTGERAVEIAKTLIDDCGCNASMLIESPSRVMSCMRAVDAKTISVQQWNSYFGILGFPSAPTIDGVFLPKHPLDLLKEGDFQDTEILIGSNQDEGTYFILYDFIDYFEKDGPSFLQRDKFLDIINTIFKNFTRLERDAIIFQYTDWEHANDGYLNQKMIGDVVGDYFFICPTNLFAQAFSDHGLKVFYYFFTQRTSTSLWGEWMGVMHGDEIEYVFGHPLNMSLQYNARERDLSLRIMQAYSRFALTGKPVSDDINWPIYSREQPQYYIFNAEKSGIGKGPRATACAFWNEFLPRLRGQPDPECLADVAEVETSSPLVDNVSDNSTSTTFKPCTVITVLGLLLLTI

[6] = biological target: Acetylcholinesterase (Leptinotarsa decemlineata) (UniProt Q27677); assay: Reversible inhibition of Diabrotica undecimpunctata (Southern corn rootworm) acetylcholinesterase using acetylcholine iodine as substrate at 2 uM measured up to 120 min by DTNB-based colorimetric analysis
[7] = biological target: Acetylcholinesterase (Leptinotarsa decemlineata) (UniProt Q27677); assay: Irreversible inhibition of Diabrotica undecimpunctata (Southern corn rootworm) acetylcholinesterase using acetylcholine iodine as substrate assessed as activity remaining at 1 uM incubated for 30 min prior to substrate addition by size exclusion chromatrography method
[8] = biological target: Acetylcholinesterase (Leptinotarsa decemlineata) (UniProt Q27677); assay: Irreversible inhibition of Diabrotica undecimpunctata (Southern corn rootworm) acetylcholinesterase using acetylcholine iodine as substrate at 300 nM measured after 120 min by DTNB-based colorimetric analysis
[9] = biological target: Acetylcholinesterase (Leptinotarsa decemlineata) (UniProt Q27677); assay: Inhibition of Diabrotica undecimpunctata (Southern corn rootworm) acetylcholinesterase using acetylcholine iodine as substrate at 300 nM measured after 30 min by DTNB-based colorimetric analysis

| SMILES | LC80 [1] [ppm] | LC80 [2] [ppm] | LC80 [3] [ppm] | other results |
| --- | --- | --- | --- | --- |
| C[C@@H]1[C@H]2Cc3ccccc3[C@@H]1N/C(=N/C#N)N2 (relative stereo) | <250 | <0.1 | <100 |  |
| CC12CC(c3ccccc3O1)N(Cc1ccccn1)/C(=N/C#N)N2 (centres undefined) | <50 | >100 | <100 |  |
| CC12CC(c3ccccc3O1)N(C(=O)C(F)(F)F)/C(=N/C#N)N2 (centres undefined) | <250 | >100 | >100 |  |
| C#CCN1/C(=N/C#N)NC2(C)CC1c1ccccc1O2 (centres undefined) | >250 | <10 | <10 |  |
| CCN1/C(=N/C#N)NC2(C)CC1c1ccccc1O2 (centres undefined) | >250 | >100 | <10 |  |
| CC(C)C(=O)N1/C(=N/C#N)NC2(C)CC1c1ccccc1O2 (centres undefined) | >250 | >100 | <10 |  |
| CN1/C(=N/C#N)NC2(C)CC1c1ccccc1O2 (centres undefined) | >250 | <100 | <10 |  |
| N#C/N=C1\NC2CC(N1)c1ccccc1O2 (centres undefined) | <50 | >100 | <100 |  |
| CC12CC(N/C(=N/C#N)N1)c1ccccc1O2 (centres undefined) | >250 | >100 | <10 | inhibition [4]: Active; inhibition [5]: inactive; inhibition [6]: 50% |
| CC1c2ccccc2C2CC1N/C(=N\C#N)N2 (centres undefined) | <2.5 | <10 |  |  |
| CC12CC(N/C(=N/C#N)N1)c1cc(OC(F)(F)F)ccc1O2 (centres undefined) | >250 | >100 | >100 |  |
| CCC1C2N/C(=N/C#N)NC1(C)Oc1ccccc12 (centres undefined) | >250 | <10 | >100 |  |
| C[C@H]1[C@H]2N/C(=N/C#N)N[C@]1(C)Oc1ccccc12 (relative stereo) | >250 | <1 | <100 |  |
| COC(=O)N1/C(=N/C#N)NC2(C)CC1c1ccc(F)cc1O2 (centres undefined) | <250 | <10 |  |  |
| CN1/C(=N/C#N)N(C)C2(C)CC1c1ccccc1O2 (centres undefined) | >250 | >100 | <10 |  |
| N#C/N=C1\NC2Cc3ccccc3C(C2)N1 (centres undefined) | <2.5 | <10 | <100 |  |
| C=CCN1/C(=N/C#N)NC2(C)CC1c1ccccc1O2 (centres undefined) | >250 | >100 | <100 |  |
| CN1/C(=N/C#N)NC2(C)CC1c1ccc(F)cc1O2 (centres undefined) | <10 |  |  |  |
| CC12CC(N/C(=N/C#N)N1)c1cc(Cl)ccc1O2 (centres undefined) | >250 | >100 | >100 |  |
| CCOP(=O)(OCC)Oc1ccc([N+](=O)[O-])cc1 [PARAOXON] |  | >100 | <10 | Activity [7]: < 20%; inhibition [8]: 100%; inhibition [9]: 50% |
| CC12CC(N/C(=N/C#N)N1)c1ccc(F)cc1O2 (centres undefined) | <250 | >100 | <10 |  |
| CC(=O)N1/C(=N\C#N)NC2CC1Cc1ccccc12 (centres undefined) | <10 |  | >100 |  |
| CC12CC(c3ccccc3O1)N(S(C)(=O)=O)/C(=N/C#N)N2 (centres undefined) | <50 | >100 | >100 |  |
| Cc1ccc2c(c1)C1CC(C)(N/C(=N\C#N)N1)O2 (centres undefined) | >250 | <100 | >100 |  |
| C[C@H]1[C@H]2N/C(=N/C#N)N[C@]1(C)Cc1ccccc12 (relative stereo) | <2.5 | <1 |  |  |
| C[C@@H]1[C@H]2N/C(=N/C#N)N[C@]1(C)Oc1ccccc12 (relative stereo) | <50 | >100 | <1 |  |
| C[C@@H]1[C@H]2N/C(=N/C#N)N[C@]1(C)Cc1ccccc12 (relative stereo) | <10 |  | <1 |  |

| SMILES | LC80 [1] [ppm] | LC80 [2] [ppm] | LC80 [3] [ppm] | other results |
| --- | --- | --- | --- | --- |
| COc1cccc2c1C1CC(C)(N/C(=N\C#N)N1)O2 (centres undefined) | <50 | >100 | >100 |  |
| CC12CC(N/C(=N/C#N)N1)c1ccc(Cl)cc1O2 (centres undefined) | <50 | >100 | <100 |  |
| N#C/N=C1/NC2CC(c3ccccc3)(N1)Oc1ccccc12 (centres undefined) | <50 | <10 | >100 |  |
| CC12CC(N/C(=N/C#N)N1)c1c(Cl)cc(Cl)cc1O2 (centres undefined) | <250 | <10 | >100 |  |
| CCC(=O)N1/C(=N/C#N)NC2(C)CC1c1ccccc1O2 (centres undefined) | <250 | <100 | <10 |  |
| CC12CC(N/C(=N/C#N)N1)c1cc(Cl)cc(Cl)c1O2 (centres undefined) | >250 | >100 | >100 |  |
| CC1C2N/C(=N\C#N)NC1c1ccccc1O2 (mixture of isomers) | >250 | >100 | <100 |  |
| CCC1C2N/C(=N\C#N)NC1c1ccccc1O2 (mixture of isomers) | <250 |  | >100 |  |
| CCC12N/C(=N\C#N)NC(c3ccccc3O1)C2C (mixture of isomers) | >250 | >100 | >100 |  |
| CC12CC(N/C(=N/C#N)N1)c1cc(C(C)(C)C)cc(C(C)(C)C)c1O2 (centres undefined) | >250 | >100 | >100 |  |
| CCC12CC(N/C(=N/C#N)N1)c1ccccc1O2 (centres undefined) | >250 | >100 | <10 |  |
| C[C@H]1[C@H]2Cc3ccccc3[C@@H]1N/C(=N/C#N)N2 (relative stereo) | <250 |  | <10 |  |
| COc1ccc2c(c1OC)OC1(C)CC2N/C(=N/C#N)N1 (centres undefined) | <250 | >100 | >100 |  |
| CC12CC(N/C(=N/C#N)N1)c1cc(N)ccc1O2 (centres undefined) | >250 | <10 | >100 |  |
| COC(=O)CN1/C(=N/C#N)NC2(C)CC1c1ccccc1O2 (centres undefined) | <50 | <100 | <100 |  |
| CC(=O)N1/C(=N/C#N)NC2(C)CC1c1ccccc1O2 (centres undefined) | <250 | <10 | <10 |  |
| CC12CC(N/C(=N/C#N)N1)c1cccc(F)c1O2 (centres undefined) | >250 | >100 | >100 |  |
| CC12CC(c3ccccc3O1)N(Cc1ccccc1)/C(=N/C#N)N2 (centres undefined) | >250 | <100 | >100 |  |
| CC(=O)N1/C(=N/C#N)NC2(C)CC1c1ccc(F)cc1O2 (centres undefined) | >250 | >100 | >100 |  |
| CC12CC(c3ccccc3O1)N(C[Si](C)(C)C)/C(=N/C#N)N2 (centres undefined) | >250 | >100 | <100 |  |
| CC(=O)N1/C(=N/C#N)NC2Cc3ccccc3C1C2 (centres undefined) | >250 | <10 |  |  |
| CC12CC(N/C(=N/C#N)N1)c1cc(Br)cc(Br)c1O2 (centres undefined) | <10 | >100 | >100 |  |
| CC12CC(N/C(=N/C#N)N1)c1cc([N+](=O)[O-])ccc1O2 (centres undefined) | <250 | <10 | >100 |  |
| CCCC(=O)N1/C(=N/C#N)NC2(C)CC1c1ccccc1O2 (centres undefined) | >250 | <100 | <10 |  |
| COC(=O)N1/C(=N/C#N)NC2(C)CC1c1ccccc1O2 (centres undefined) | >250 | <10 | <10 |  |
| Cc1cccc2c1OC1(C)CC2N/C(=N/C#N)N1 (centres undefined) | >250 | >100 | >100 |  |
